Numbered stars: 1 amine (or outer) side, 2 acyl side, 3 side chain; on linkers, the order of the positions; unused ones are H or OH. Square brackets hold non-standard residues; d marks the D form. Peptide text beside a SMILES is read from it. * marks the point of attachment. C18 diacid = O=C(O)CCCCCCCCCCCCCCCCC(=O)*; γGlu = O=C(O)[C@H](CCC(=O)[*:2])N[*:1]; Conj‑Neu‑C18DA = not defined here; NMeL = CN[C@@H](CC(C)C)C(=O)O; Nle = CCCC[C@H](N)C(=O)O; AEEA = NCCOCCOCC(=O)O; Aib = CC(C)(N)C(=O)O; βAla = NCCC(=O)O

Common to all, as to test: IP3 assay (inositol trisphosphate, 3H-myoinositol) in transiently transfected COS-7 cells
Common to all, as to format: cell-based

In test [1] the target is T1, hNK3R (Homo sapiens, UniProt P29371).
T1 construct: host or cells: COS-7
T1 sequence (P29371 1-465): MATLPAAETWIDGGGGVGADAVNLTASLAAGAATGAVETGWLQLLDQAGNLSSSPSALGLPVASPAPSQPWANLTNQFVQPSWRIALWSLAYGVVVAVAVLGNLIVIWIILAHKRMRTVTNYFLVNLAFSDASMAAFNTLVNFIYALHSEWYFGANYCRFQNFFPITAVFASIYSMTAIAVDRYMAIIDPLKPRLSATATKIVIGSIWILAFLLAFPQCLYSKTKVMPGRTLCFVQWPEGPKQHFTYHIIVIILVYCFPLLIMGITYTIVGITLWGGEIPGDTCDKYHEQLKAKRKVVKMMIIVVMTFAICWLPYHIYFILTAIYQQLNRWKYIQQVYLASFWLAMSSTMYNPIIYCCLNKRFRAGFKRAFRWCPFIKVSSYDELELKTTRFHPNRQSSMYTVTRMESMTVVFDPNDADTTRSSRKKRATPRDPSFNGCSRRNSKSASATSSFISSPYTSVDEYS
Particulars: for hNK3, IP3 Efficacy / EC50: COS-7 cells; for hNK3, IP3 Efficacy: figure legends: percent of 10^-6 M NKA; for EC50: 0.2% ovalbumin buffer, read-out: hNK3, IP3 EC50. How it is done: (§1) Agonist-induced G-protein coupled receptor (GPCR) activation was measured by an Inositol-1,4,5-Trisphosphate [^3H] Radioreceptor Assay (IPs Assay). Assays were carried out using COS-7 cells transiently transfected by calcium phosphate transfection with a vector pcDNA3.1(+) encoding one of the indicated receptors (Genscript). Briefly, DNA mixed with CaCl2 (2 M) and TE-buffer (10 mM Tris-HCl, 1 mM EDTA, pH 7.5) was dropwise added to 2×HBS (50 mM HEPES, 280 mM NaCl, 1.5 mM NaH2PO4, pH 7.2) and incubated for 45 min at room temperature (22±2° C.). The mixture and a final concentration of 100 μM Chloroquine were added to the cells and left to incubate for 5 hours at 37° C. under standard cell culture conditions (10% CO2) before changing medium to fresh medium containing 5 μl/mL Myo-[2-^3H(N)]-inositol (labelling medium).
(§2) The IP3 assay takes advantage of the tachykinin receptors' ability to induce production of the inositol trisphosphate (IP3) second messenger upon agonist (ligand) binding on receptor expressing cells following an initial ^3H-inositol labelling period. In effect this means that production of the second messenger IP3 as a measure of receptor activity can be assessed by counting ^3H-activity.
(§3) Assay solutions used: Wash buffer (HBSS), Assay buffer (HBSS+10 mM LiCl and 0,2% w/v ovalbumin), Lysis buffer (10 mM formic acid), and SPA YSI beads (12.5 mg/ml in H2O). The assay was performed the day after transfection. Briefly, labelling medium was aspirated, and plates were washed ×1 in wash buffer before adding 100 μl assay buffer, pre-incubated for 30 min followed by 120 min incubation with agonist, both at 37° C. After incubation, plates were immediately placed on ice and the incubation medium was aspirated and 40 μl of 10 mM formic acid per well was added. Plates were incubated for at least 30 min on ice. 60 μl (1 mg/well) SPA YSI beads/well was pipetted into a solid white 96 wells plate and 35 μl of the lysis solution was transferred to the plate before covering plates with seal cover and shaking for 10 min. (max speed). Centrifuge plates and leave for 8 hours at room temperature before counting the plates in a MicroBeta plate counter (Perkin Elmer).

The target of test [2] is T2, hNK1R (Homo sapiens, UniProt P25103).
T2 construct: host or cells: COS-7
Particulars: for hNK1R, IP3 Efficacy / EC50: COS-7 cells; for hNK1R, IP3 Efficacy: figure legends: percent of 10^-6 M NKA; for EC50: 0.2% ovalbumin buffer. How it is done:
as §1, §2, §3

Test [3] has as its target T3, hNK2R (Homo sapiens, UniProt P21452).
T3 construct: host or cells: COS-7
T3 sequence (P21452 1-398): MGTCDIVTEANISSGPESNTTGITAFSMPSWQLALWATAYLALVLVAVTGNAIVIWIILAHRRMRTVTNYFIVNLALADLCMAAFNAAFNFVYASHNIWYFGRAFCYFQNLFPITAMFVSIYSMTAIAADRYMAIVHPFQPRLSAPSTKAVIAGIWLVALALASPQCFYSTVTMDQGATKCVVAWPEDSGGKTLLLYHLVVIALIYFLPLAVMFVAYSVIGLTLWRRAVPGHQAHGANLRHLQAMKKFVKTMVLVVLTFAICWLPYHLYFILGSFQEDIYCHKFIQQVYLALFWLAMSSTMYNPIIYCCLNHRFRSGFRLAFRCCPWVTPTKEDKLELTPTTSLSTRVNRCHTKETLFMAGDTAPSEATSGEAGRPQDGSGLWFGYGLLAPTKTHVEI
Particulars: for hNK2R, IP3 Efficacy / EC50: COS-7 cells; for hNK2R, IP3 Efficacy: figure legends: percent of 10^-6 M NKA; for EC50: 0.2% ovalbumin buffer. As to the method:
as §1, §2, §3

T2 sequence (P25103 whole entry): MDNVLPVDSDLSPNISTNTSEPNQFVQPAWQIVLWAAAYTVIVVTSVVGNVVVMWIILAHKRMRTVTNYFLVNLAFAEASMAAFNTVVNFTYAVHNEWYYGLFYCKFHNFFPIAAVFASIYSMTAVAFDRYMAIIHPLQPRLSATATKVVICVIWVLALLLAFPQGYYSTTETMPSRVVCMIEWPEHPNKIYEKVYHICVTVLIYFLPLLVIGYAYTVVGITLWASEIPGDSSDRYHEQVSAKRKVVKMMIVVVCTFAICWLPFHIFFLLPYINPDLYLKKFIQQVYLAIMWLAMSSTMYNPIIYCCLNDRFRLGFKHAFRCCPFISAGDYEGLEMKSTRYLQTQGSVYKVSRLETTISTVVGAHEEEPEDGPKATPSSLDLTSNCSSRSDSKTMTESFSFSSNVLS

For “*Asp;Lys;Pro;Val;Gly;NmLeu;Nle;NH2 ({Conj‑Neu‑C18DA}-DKPVG[NMeL][Nle]-NH2; reading uncertain; also: printed as *Asp;Lys;Pro;Val;Gly;NmLeu;Nle;NH2) [compound 362, * is Conj-Neu-C18DA protractor on N-terminal α-amino group]”, in test [1], the “hNK3R receptor activation, in words” value is recorded as “complete loss of receptor activation on NK1-3Rs” and the “hNK3, IP3 Efficacy” value is 0%. In addition, in test [2], the “hNK1R receptor activation, in words” value was “complete loss of receptor activation on NK1-3Rs” and the “hNK1R, IP3 Efficacy” value came out at 0%. In addition, in test [3], the “hNK2R receptor activation, in words” value was “complete loss of receptor activation on NK1-3Rs” and the “hNK2R, IP3 Efficacy” value stood at 0%.
In the case of `CCCC[C@H](NC(=O)[C@H](CC(C)C)N(C)C(=O)CNC(=O)[C@@H](NC(=O)[C@H](Cc1ccccc1)NC(=O)[C@H](CCCNC(=N)N)NC(=O)[C@H](CC(=O)O)NC(=O)COCCOCCNC(=O)COCCOCCNC(=O)CC[C@H](NC(=O)CCCCCCCCCCCCCCCCC(=O)O)C(=O)O)C(C)C)C(N)=O` [compound 306, *Asp;Arg;Phe;Val;Gly;NmLeu;Nle;NH2] ({C18 diacid-γGlu-AEEA-AEEA}-DRFVG[NMeL][Nle]-NH2), in test [1], the EC50 stood at 36 nM and the “hNK3, IP3 Efficacy” value was determined as 65%. In test [2], the EC50 was 19 nM and the “hNK1R, IP3 Efficacy” value is 80%. Moreover, in test [3], a half-maximal effect (EC50) was put at 2 nM and the “hNK2R, IP3 Efficacy” value was 90%.
For the compound `CCCC[C@H](NC(=O)[C@H](CC(C)C)N(C)C(=O)CCNC(=O)[C@@H](NC(=O)[C@H](Cc1ccccc1)NC(=O)[C@H](CO)NC(=O)[C@H](CC(=O)O)NC(=O)[C@@H](NC(=O)[C@H](CCCCN)NC(=O)COCCOCCNC(=O)COCCOCCNC(=O)CC[C@H](NC(=O)CCCCCCCCCCCCCCCCC(=O)O)C(=O)O)[C@@H](C)O)C(C)C)C(N)=O` [compound 310, *Lys;Thr;Asp;Ser;Phe;Val;bAla;NmLeu;Nle;NH2] ({C18 diacid-γGlu-AEEA-AEEA}-KTDSFV[βAla][NMeL][Nle]-NH2), the “hNK3, IP3 Efficacy” value in test [1] is listed as 80%. Also, the “hNK1R, IP3 Efficacy” value in test [2] stood at 0%. In addition, in test [3], a half-maximal effect (EC50) was put at 45 nM and the “hNK2R, IP3 Efficacy” value stood at 65%.
In the case of `CCCC[C@H](NC(=O)[C@H](CC(C)C)NC(=O)CNC(=O)[C@@H](NC(=O)[C@H](Cc1ccccc1)NC(=O)[C@H](CO)NC(=O)[C@H](CC(=O)O)NC(=O)[C@@H](NC(=O)[C@H](CCCCN)NC(=O)COCCOCCNC(=O)COCCOCCNC(=O)CC[C@H](NC(=O)CCCCCCCCCCCCCCCCC(=O)O)C(=O)O)[C@@H](C)O)C(C)C)C(N)=O` [compound 308, *Lys;Thr;Asp;Ser;Phe;Val;Gly;Leu;Nle;NH2], in test [1], the EC50 came to 1000 nM and the “hNK3, IP3 Efficacy” value amounted to 93%. For the same compound, in test [2], the EC50 is approximately 164 nM and the “hNK1R, IP3 Efficacy” value was determined as 60%. Also, in test [3], the EC50 amounted to 96 nM and the “hNK2R, IP3 Efficacy” value is 65%.
Regarding `CCCC[C@H](NC(=O)[C@H](CC(C)C)NC(=O)C(C)(C)NC(=O)[C@@H](NC(=O)[C@H](Cc1ccccc1)NC(=O)[C@H](CCCCN)NC(=O)[C@H](CC(=O)O)NC(=O)COCCOCCNC(=O)COCCOCCNC(=O)CC[C@H](NC(=O)CCCCCCCCCCCCCCCCC(=O)O)C(=O)O)C(C)C)C(N)=O` [compound 373, *Asp;Lys;Phe;Val;Aib;Leu;Nle;NH2] ({C18 diacid-γGlu-AEEA-AEEA}-DKFV[Aib]L[Nle]-NH2), the “hNK3, IP3 Efficacy” value in test [1] turned out to be 0%. Moreover, in test [2], the EC50 was approximately 136 nM and the “hNK1R, IP3 Efficacy” value is reported as 66%. Moreover, in test [3], a half-maximal effect (EC50) was put at 4.3 nM and the “hNK2R, IP3 Efficacy” value amounted to 89%.
On to `CSCC[C@H](NC(=O)[C@H](CC(C)C)N(C)C(=O)CNC(=O)[C@@H](NC(=O)[C@H](Cc1ccccc1)NC(=O)[C@H](CCCCNC(=O)COCCOCCNC(=O)COCCOCCNC(=O)CC[C@H](NC(=O)CCCCCCCCCCCCCCCCC(=O)O)C(=O)O)NC(=O)[C@H](CC(=O)O)NC(=O)COCCOCCNC(=O)COCCOCCNC(=O)CC[C@H](NC(=O)CCCCCCCCCCCCCCCCC(=O)O)C(=O)O)C(C)C)C(N)=O` [compound 302, *Asp;Lys*;Phe;Val;Gly;NmLeu;Met;NH2], for which, in test [3], the “hNK2R receptor activation, in words” value was “inactivates the NKA(4-10) analogue”.

Usually EC50 stands for the concentration that produces a half-maximal response.

The record behind these values is patent publication US20230406883A1, “COMPOUNDS AND THEIR USE IN TREATMENT OF TACHYKININ RECEPTOR MEDIATED DISORDERS” (Embark Biotech ApS, priority 2020, published 2023).
